Experimental data as given in patent US9340590B2 (priority 2011, dated 2016).
Positions of bridges follow the written chain, without caps; N, C: chain ends. Non-standard residues stand in square brackets, D forms with d. Residues, ends and D or L forms follow the SMILES beside them. Arg(Me2s) = CN=C(NC)NCCC[C@H](N)C(=O)O; 2Pal = N[C@@H](Cc1ccccn1)C(=O)O

Tests used:
Experiment in all cases: cell-based
hNav1.7 = hNav1.7 (Homo sapiens, UniProt Q15858); format: cell-based; details: Table 25; IonWorks Quattro, use; […]; read-out: IWQ Use Nav1.7
hNav1.5 = hNav1.5 (Homo sapiens, UniProt Q14524); details: Table 25; IonWorks Quattro, use; […]; read-out: IWQ Use Nav1.5
hNav1.3 = hNav1.3 (Homo sapiens, UniProt Q9NY46); details: Table 25; IonWorks Quattro, use; […]; read-out: IWQ Use Nav1.3
hNav1.3, sequence (Q9NY46 whole entry, looked up): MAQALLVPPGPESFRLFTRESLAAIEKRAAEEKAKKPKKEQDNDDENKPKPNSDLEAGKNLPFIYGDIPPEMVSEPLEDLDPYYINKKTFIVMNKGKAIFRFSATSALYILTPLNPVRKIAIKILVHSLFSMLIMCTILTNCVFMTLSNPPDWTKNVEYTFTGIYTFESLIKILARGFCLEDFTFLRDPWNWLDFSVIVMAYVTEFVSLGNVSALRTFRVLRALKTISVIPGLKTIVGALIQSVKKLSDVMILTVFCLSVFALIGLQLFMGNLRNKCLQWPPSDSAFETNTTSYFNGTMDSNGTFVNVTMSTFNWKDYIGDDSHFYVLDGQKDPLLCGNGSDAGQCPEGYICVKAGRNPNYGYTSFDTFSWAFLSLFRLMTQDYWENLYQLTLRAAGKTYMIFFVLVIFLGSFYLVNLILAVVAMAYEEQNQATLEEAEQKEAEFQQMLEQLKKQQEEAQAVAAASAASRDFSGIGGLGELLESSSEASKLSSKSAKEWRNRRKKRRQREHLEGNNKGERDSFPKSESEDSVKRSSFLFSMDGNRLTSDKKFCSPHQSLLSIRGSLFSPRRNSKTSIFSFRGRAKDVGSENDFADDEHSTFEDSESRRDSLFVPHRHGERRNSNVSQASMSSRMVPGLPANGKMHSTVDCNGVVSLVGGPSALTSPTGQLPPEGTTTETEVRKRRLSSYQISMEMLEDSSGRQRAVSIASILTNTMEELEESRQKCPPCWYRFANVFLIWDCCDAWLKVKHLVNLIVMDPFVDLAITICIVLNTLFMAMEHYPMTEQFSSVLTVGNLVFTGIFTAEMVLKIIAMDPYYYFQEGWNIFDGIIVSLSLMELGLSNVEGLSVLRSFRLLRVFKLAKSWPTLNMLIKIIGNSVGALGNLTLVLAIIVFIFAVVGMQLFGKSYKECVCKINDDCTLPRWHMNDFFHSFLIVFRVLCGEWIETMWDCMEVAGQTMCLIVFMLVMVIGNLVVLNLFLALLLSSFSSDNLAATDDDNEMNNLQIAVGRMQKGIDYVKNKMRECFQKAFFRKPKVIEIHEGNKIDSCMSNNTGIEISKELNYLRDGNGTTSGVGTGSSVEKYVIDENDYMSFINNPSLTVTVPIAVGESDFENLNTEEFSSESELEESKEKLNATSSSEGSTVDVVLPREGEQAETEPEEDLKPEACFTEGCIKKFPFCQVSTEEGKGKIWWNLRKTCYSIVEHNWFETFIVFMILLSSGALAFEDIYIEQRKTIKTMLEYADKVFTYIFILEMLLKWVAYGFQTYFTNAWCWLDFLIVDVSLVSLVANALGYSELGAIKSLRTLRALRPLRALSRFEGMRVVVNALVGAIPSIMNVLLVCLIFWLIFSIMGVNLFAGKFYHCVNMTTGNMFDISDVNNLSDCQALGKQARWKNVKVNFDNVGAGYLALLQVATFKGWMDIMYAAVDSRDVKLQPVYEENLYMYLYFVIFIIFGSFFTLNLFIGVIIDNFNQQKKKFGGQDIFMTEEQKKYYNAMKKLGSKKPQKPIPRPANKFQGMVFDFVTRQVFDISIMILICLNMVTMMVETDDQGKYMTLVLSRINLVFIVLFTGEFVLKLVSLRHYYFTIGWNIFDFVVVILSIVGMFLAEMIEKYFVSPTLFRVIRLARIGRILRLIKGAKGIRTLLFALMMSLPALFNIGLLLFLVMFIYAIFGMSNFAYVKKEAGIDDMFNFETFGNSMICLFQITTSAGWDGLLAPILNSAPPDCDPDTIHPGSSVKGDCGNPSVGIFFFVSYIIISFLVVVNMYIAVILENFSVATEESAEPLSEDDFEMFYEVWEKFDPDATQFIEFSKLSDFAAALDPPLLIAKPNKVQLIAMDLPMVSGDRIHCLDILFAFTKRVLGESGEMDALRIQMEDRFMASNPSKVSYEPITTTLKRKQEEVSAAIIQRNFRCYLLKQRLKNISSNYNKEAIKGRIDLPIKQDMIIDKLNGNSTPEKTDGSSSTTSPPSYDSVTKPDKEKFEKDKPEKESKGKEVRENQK

hNav1.7, sequence (Q15858 whole entry, looked up): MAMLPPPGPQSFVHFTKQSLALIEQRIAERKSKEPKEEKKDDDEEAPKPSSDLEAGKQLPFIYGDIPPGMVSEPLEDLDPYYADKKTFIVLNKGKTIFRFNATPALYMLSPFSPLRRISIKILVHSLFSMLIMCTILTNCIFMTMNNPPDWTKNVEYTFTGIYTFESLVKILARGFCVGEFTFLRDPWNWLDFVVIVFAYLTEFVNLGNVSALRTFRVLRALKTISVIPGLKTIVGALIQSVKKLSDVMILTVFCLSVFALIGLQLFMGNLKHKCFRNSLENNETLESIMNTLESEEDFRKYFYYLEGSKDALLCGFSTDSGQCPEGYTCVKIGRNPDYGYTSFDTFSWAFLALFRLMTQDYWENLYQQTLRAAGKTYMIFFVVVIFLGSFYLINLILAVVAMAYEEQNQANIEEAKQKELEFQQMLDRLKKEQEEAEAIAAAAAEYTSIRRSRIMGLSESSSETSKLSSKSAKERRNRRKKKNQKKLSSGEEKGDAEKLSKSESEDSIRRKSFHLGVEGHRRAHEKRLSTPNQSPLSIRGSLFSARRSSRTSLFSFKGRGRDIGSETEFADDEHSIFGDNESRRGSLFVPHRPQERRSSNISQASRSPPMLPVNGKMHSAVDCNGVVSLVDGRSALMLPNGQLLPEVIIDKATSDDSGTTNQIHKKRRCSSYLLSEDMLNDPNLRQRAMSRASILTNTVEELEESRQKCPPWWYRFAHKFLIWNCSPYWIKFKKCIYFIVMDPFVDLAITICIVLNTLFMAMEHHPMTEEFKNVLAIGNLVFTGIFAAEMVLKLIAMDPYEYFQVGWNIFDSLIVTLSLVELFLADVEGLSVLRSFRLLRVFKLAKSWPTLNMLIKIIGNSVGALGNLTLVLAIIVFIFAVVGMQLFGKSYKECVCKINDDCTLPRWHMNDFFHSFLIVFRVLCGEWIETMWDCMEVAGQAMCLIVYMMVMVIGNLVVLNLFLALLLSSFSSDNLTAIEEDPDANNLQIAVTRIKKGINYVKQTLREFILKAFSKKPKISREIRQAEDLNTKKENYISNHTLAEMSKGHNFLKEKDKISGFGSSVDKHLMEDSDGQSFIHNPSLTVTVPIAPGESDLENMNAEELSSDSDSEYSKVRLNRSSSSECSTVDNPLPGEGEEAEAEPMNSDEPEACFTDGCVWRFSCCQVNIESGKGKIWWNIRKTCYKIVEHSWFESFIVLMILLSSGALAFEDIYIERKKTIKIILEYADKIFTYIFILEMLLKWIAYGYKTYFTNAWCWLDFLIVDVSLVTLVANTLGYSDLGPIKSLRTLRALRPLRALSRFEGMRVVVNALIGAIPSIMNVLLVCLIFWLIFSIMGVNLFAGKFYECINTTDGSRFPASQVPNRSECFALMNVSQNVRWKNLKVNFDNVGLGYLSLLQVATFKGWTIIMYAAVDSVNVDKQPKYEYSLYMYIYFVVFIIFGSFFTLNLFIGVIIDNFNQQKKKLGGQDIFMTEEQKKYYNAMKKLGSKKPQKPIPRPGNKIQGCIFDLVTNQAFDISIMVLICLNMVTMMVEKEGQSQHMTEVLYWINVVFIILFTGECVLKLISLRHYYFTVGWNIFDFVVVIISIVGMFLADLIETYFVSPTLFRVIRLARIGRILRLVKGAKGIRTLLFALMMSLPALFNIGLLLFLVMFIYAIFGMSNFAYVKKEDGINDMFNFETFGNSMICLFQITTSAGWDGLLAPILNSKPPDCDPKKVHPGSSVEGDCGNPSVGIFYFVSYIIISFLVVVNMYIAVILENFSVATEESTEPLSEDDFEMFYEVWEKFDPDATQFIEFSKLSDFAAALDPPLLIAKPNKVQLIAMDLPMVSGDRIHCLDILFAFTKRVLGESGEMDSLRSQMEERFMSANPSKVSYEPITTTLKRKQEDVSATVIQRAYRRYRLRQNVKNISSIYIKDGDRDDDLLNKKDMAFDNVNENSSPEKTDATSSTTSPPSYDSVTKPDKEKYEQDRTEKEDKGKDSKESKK

Row | SMILES | IC50 (hNav1.7) | IC50 (hNav1.5) | IC50 (hNav1.3)
1 | CC[C@H](C)[C@@H]1NC(=O)[C@@H]2CSSC[C@@H]3NC(=O)[C@H](C(C)C)NC(=O)[C@H](CC(C)C)NC(=O)[C@H](CC(N)=O)NC(=O)[C@@H]4CCCN4C(=O)[C@H](CCCNC(=N)N)NC(=O)[C@H](CSSC[C@H](NC(=O)[C@@H](N)CC(=O)O)C(=O)N[C@@H](CC(C)C)C(=O)NCC(=O)N[C@@H](Cc4ccccc4)C(=O)N[C@@H](CCSC)C(=O)N[C@@H](CCCNC(=N)N)C(=O)N[C@@H](CCCCN)C(=O)N2)NC(=O)[C@H](CSSC[C@@H](C(=O)N[C@@H](Cc2ccccn2)C(=O)N[C@@H](Cc2ccc(O)cc2)C(=O)N[C@H](C(=O)N[C@@H](Cc2ccccc2)C(N)=O)C(C)C)NC(=O)[C@H](Cc2c[nH]c4ccccc24)NC(=O)[C@H](CCCCN)NC(=O)[C@H](Cc2c[nH]cn2)NC(=O)[C@H]([C@@H](C)O)NC(=O)[C@H](CCCNC(=N)N)NC(=O)[C@H](CO)NC3=O)NC(=O)[C@H](CCCCN)NC(=O)[C@H](CC(=O)O)NC(=O)[C@H](CC(N)=O)NC(=O)[C@H](CC(=O)O)NC(=O)[C@@H]2CCCN2C1=O [compound 364] (H-DCLGFMRKCIPDNDKCCRPNLVCSRTHKWC[2Pal]YVF-NH2; disulfide 2-17, 9-23, 16-30) | 11 µM | 9.49 µM | 16.9 µM
2 | CC[C@H](C)[C@@H]1NC(=O)[C@@H]2CSSC[C@@H]3NC(=O)[C@H](C(C)C)NC(=O)[C@H](CC(C)C)NC(=O)[C@H](CC(N)=O)NC(=O)[C@@H]4CCCN4C(=O)[C@H](CCCNC(=N)N)NC(=O)[C@H](CSSC[C@H](NC(=O)[C@@H](N)CC(=O)O)C(=O)N[C@@H](CC(C)C)C(=O)NCC(=O)N[C@@H](Cc4ccccc4)C(=O)N[C@@H](CCSC)C(=O)N[C@@H](CCCNC(=N)N)C(=O)N[C@@H](CCCCN)C(=O)N2)NC(=O)[C@H](CSSC[C@@H](C(=O)N[C@@H](CCCNC(=NC)NC)C(=O)N[C@@H](Cc2ccc(O)cc2)C(=O)N[C@H](C(=O)N[C@@H](Cc2ccccc2)C(N)=O)C(C)C)NC(=O)[C@H](Cc2c[nH]c4ccccc24)NC(=O)[C@H](CCCCN)NC(=O)[C@H](Cc2c[nH]cn2)NC(=O)[C@H]([C@@H](C)O)NC(=O)[C@H](CCCNC(=N)N)NC(=O)[C@H](CO)NC3=O)NC(=O)[C@H](CCCCN)NC(=O)[C@H](CC(=O)O)NC(=O)[C@H](CC(N)=O)NC(=O)[C@H](CC(=O)O)NC(=O)[C@@H]2CCCN2C1=O [compound 365] (H-DCLGFMRKCIPDNDKCCRPNLVCSRTHKWC[Arg(Me2s)]YVF-NH2; disulfide 2-17, 9-23, 16-30) | 4.15 µM | 14.2 µM | 4.55 µM
3 | CC[C@H](C)[C@@H]1NC(=O)[C@@H]2CSSC[C@@H]3NC(=O)[C@H](C(C)C)NC(=O)[C@H](CC(C)C)NC(=O)[C@H](CC(N)=O)NC(=O)[C@@H]4CCCN4C(=O)[C@H](CCCNC(=N)N)NC(=O)[C@H](CSSC[C@H](NC(=O)[C@@H](N)CC(=O)O)C(=O)N[C@@H](CC(C)C)C(=O)NCC(=O)N[C@@H](Cc4ccccc4)C(=O)N[C@@H](CCSC)C(=O)N[C@@H](CCCNC(=N)N)C(=O)N[C@@H](CCCCN)C(=O)N2)NC(=O)[C@H](CSSC[C@@H](C(=O)N[C@@H](CCCCN)C(=O)N[C@@H](CCC(N)=O)C(=O)N[C@H](C(=O)N[C@@H](Cc2ccccc2)C(N)=O)C(C)C)NC(=O)[C@H](Cc2c[nH]c4ccccc24)NC(=O)[C@H](CCCCN)NC(=O)[C@H](Cc2c[nH]cn2)NC(=O)[C@H]([C@@H](C)O)NC(=O)[C@H](CCCNC(=N)N)NC(=O)[C@H](CO)NC3=O)NC(=O)[C@H](CCCCN)NC(=O)[C@H](CC(=O)O)NC(=O)[C@H](CC(N)=O)NC(=O)[C@H](CC(=O)O)NC(=O)[C@@H]2CCCN2C1=O [compound 366] (H-DCLGFMRKCIPDNDKCCRPNLVCSRTHKWCKQVF-NH2; disulfide 2-17, 9-23, 16-30) | 4.87 µM | 21 µM | 2.39 µM
4 | CC[C@H](C)[C@H](NC(=O)[C@H](CCCCN)NC(=O)[C@@H]1CSSC[C@@H]2NC(=O)[C@H](CCCCN)NC(=O)[C@H](CC(=O)O)NC(=O)[C@H](CC(N)=O)NC(=O)[C@H](CC(=O)O)NC(=O)[C@@H]3CCCN3C(=O)[C@H]([C@@H](C)CC)NC(=O)[C@@H]3CSSC[C@H](NC(=O)[C@H](C(C)C)NC(=O)[C@H](CC(C)C)NC(=O)[C@H](CC(N)=O)NC(=O)[C@@H]4CCCN4C(=O)[C@H](CCCNC(=N)N)NC(=O)[C@H](CSSC[C@H](NC(=O)[C@@H](N)CC(=O)O)C(=O)N[C@@H](CC(C)C)C(=O)NCC(=O)N[C@@H](Cc4ccccc4)C(=O)N[C@@H](CCSC)C(=O)N[C@@H](CCCNC(=N)N)C(=O)N[C@@H](CCCCN)C(=O)N3)NC2=O)C(=O)N[C@@H](CO)C(=O)N[C@@H](CCCNC(=N)N)C(=O)N[C@@H]([C@@H](C)O)C(=O)N[C@@H](Cc2c[nH]cn2)C(=O)N[C@@H](CCCCN)C(=O)N[C@@H](Cc2c[nH]c3ccccc23)C(=O)N1)C(=O)N[C@H](C(=O)N[C@@H](Cc1ccccc1)C(N)=O)C(C)C [compound 367] (H-DCLGFMRKCIPDNDKCCRPNLVCSRTHKWCKIVF-NH2; disulfide 2-17, 9-23, 16-30) | 0.07 µM | 8.71 µM | 0.06 µM
5 | CC[C@H](C)[C@@H]1NC(=O)[C@@H]2CSSC[C@@H]3NC(=O)[C@H](C(C)C)NC(=O)[C@H](CC(C)C)NC(=O)[C@H](CC(N)=O)NC(=O)[C@@H]4CCCN4C(=O)[C@H](CCCNC(=N)N)NC(=O)[C@H](CSSC[C@H](NC(=O)[C@@H](N)CC(=O)O)C(=O)N[C@@H](CC(C)C)C(=O)NCC(=O)N[C@@H](Cc4ccccc4)C(=O)N[C@@H](CCSC)C(=O)N[C@@H](CCCNC(=N)N)C(=O)N[C@@H](CCCCN)C(=O)N2)NC(=O)[C@H](CSSC[C@@H](C(=O)N[C@@H](CCCCN)C(=O)N[C@@H](CCSC)C(=O)N[C@H](C(=O)N[C@@H](Cc2ccccc2)C(N)=O)C(C)C)NC(=O)[C@H](Cc2c[nH]c4ccccc24)NC(=O)[C@H](CCCCN)NC(=O)[C@H](Cc2c[nH]cn2)NC(=O)[C@H]([C@@H](C)O)NC(=O)[C@H](CCCNC(=N)N)NC(=O)[C@H](CO)NC3=O)NC(=O)[C@H](CCCCN)NC(=O)[C@H](CC(=O)O)NC(=O)[C@H](CC(N)=O)NC(=O)[C@H](CC(=O)O)NC(=O)[C@@H]2CCCN2C1=O [compound 368] (H-DCLGFMRKCIPDNDKCCRPNLVCSRTHKWCKMVF-NH2; disulfide 2-17, 9-23, 16-30) | 0.35 µM | 6.21 µM | 0.14 µM
6 | CC[C@H](C)[C@@H]1NC(=O)[C@@H]2CSSC[C@@H]3NC(=O)[C@H](C(C)C)NC(=O)[C@H](CC(C)C)NC(=O)[C@H](CC(N)=O)NC(=O)[C@@H]4CCCN4C(=O)[C@H](CCCNC(=N)N)NC(=O)[C@H](CSSC[C@H](NC(=O)[C@@H](N)CC(=O)O)C(=O)N[C@@H](CC(C)C)C(=O)NCC(=O)N[C@@H](Cc4ccccc4)C(=O)N[C@@H](CCSC)C(=O)N[C@@H](CCCNC(=N)N)C(=O)N[C@@H](CCCCN)C(=O)N2)NC(=O)[C@H](CSSC[C@@H](C(=O)N[C@@H](CCCCN)C(=O)N[C@H](C(=O)N[C@H](C(=O)N[C@@H](Cc2ccccc2)C(N)=O)C(C)C)[C@@H](C)O)NC(=O)[C@H](Cc2c[nH]c4ccccc24)NC(=O)[C@H](CCCCN)NC(=O)[C@H](Cc2c[nH]cn2)NC(=O)[C@H]([C@@H](C)O)NC(=O)[C@H](CCCNC(=N)N)NC(=O)[C@H](CO)NC3=O)NC(=O)[C@H](CCCCN)NC(=O)[C@H](CC(=O)O)NC(=O)[C@H](CC(N)=O)NC(=O)[C@H](CC(=O)O)NC(=O)[C@@H]2CCCN2C1=O [compound 369] (H-DCLGFMRKCIPDNDKCCRPNLVCSRTHKWCKTVF-NH2; disulfide 2-17, 9-23, 16-30) | 3.54 µM | 11.1 µM | 3.29 µM
